Consider two molecules from patent US5084082A, “Soybean plants with dominant selectable trait for herbicide resistance” (priority 1990, dated 1992).

In assay [1] the test system is mutant line W4. Nature of the assay: Test B postemergence cross resistance test. The format is in vivo, soybean. The following applies: Glycine max, post-emergence; for % crop injury at 2 g/ha: W4, 2 g/ha postemergence. The essentials: (§1)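 Mutant lines and Williams 82 plants, two per 10 cm pot, were sprayed postemergence at the second trifoliolate stage with 11 ALS inhibitors (eight sulfonylureas, three imidazolinones), each at two rates. Injury was rated two to three times per pot over three weeks in the greenhouse, then averaged.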

In assay [2] the test system is mutant line W17. Nature of the assay: Test B postemergence cross resistance test. It counts as in vivo, soybean. The following applies: Glycine max, post-emergence; for soybean crop injury (%) at 2 g/ha: W17, 2 g/ha postemergence. The essentials:
as §1

Assay [3] deals with mutant line W28. As to the kind of experiment: Test B postemergence cross resistance test. The following applies: Glycine max, post-emergence; for mean % injury to soybean at 2 g/ha: W28, 2 g/ha postemergence. It counts as in vivo, soybean. The method, boiled down:
as §1

The test system of assay [4] is mutant line W23. As to the kind of experiment: Test B postemergence cross resistance test. The following applies: Glycine max, post-emergence. The format is in vivo, soybean. The method, boiled down: as §1
In assay [5] the test system is Williams 82. As to the kind of experiment: Test B postemergence cross resistance test. It counts as in vivo, soybean. The settings on record: Glycine max, post-emergence; for soybean crop injury at 2 g/ha: Wm 82, 2 g/ha postemergence. The essentials:
as §1

Assay [6] relates to mutant line W19. Nature of the assay: Test B postemergence cross resistance test. It counts as in vivo, soybean. The following applies: Glycine max, post-emergence; for percent soybean crop injury at 2 g/ha: W19, 2 g/ha postemergence. The method, boiled down:
as §1

The subject of assay [7] is mutant W20. Nature of the assay: Test A postemergence herbicide spray, greenhouse pots. It counts as in vivo, soybean. The text has this:
(§2) In the first post-emergence test, two true-breeding resistant mutant lines, W19 and W20, were compared to previously isolated tolerant mutants and wild-type Williams 82. Eighteen pots (20 cm diameter) of each soybean line (2 seeds per pot) were planted using a standard sterile potting mix. When the seedlings reached the second trifoliolate stage, plants were thinned back to one plant per pot. Each pot was then sprayed with a specific herbicide treatment using a conveyor belt spray apparatus to emulate field application. The nine different herbicide treatments included one rate (8 g/ha) of Compound 1 and two rates (8 and 32 g/ha) each of four other sulfonylurea herbicides (Compounds 2,3,7 and 8) (see Table VI) using a factorial treatment design with 2 replications.
(§3) In both postemergence tests, plants were returned to the greenhouse after treatment and provided with ample light, moisture, and nutrients to support healthy plant growth. Two to three ratings per pot were recorded over a three-week period and averaged to obtain a single value for each pot For each herbicide, analysis of variance on injury ratings was performed separately. Fisher's least significant difference (LSD) was used to determine the significance of line mean differences at each herbicide rate using the 95% level of confidence. […]

The subject of assay [8] is Mutant 1-184A. The description is as above. It counts as in vivo, soybean.
From the text: as §2, §3

In assay [9] the test system is Williams 82. Described as above. The format is in vivo, soybean.
From the text: as §2, §3

The test system of assay [10] is mutant W19. The description is as above. The format is in vivo, soybean.
From the text: as §2, §3

Assay [11] concerns wild type soybeans. As to the kind of experiment: Pilot studies, threshold concentration in hydroponic system. It counts as in vivo, soybean. The following applies: 100 mg/L used to irrigate the hydroponic system. The text has this:
(§4) The same sulfonylurea concentrations would select only highly resistant plants.

Assay [12] deals with mutants that have heritable sulfonylurea tolerance. The description is as above. The settings on record: sulfonylurea tolerant mutants, 100 mg/L used to irrigate the hydroponic system. The format is in vivo, soybean.
From the text: as §4

Assay [13] deals with Acetolactate synthase (ALS) from leaves of Williams 82. Nature of the assay: Test D ALS assay with chlorsulfuron. It counts as biochemical, soybean. As for the experimental part: Acetolactate synthase (ALS) was extracted from leaves of soybean plants growing vegetatively. The leaves were homogenized in 4 volumes of buffer containing 100 mM hepes (pH 7.5), 1 mM sodium pyruvate, 0.5 mM magnesium chloride, 0.5 mM thiamine pyrophosphate, […], 10% glycerol, 5% PVPP, and 0.2% mercaptoethanol. The homogenate was filtered through cheese cloth and centrifuged at 20,000 g for 20 min. ALS was precipitated from the supernatant with ammonium sulfate. The enzyme was collected between 20 and 60% saturation by centrifugation at 20,000 g for 20 min. The pellet was resuspended in buffer containing 100 mM Hepes, 1 mM sodium pyruvate, and 0.5 mM magnesium chloride, and desalted on PD-10 columns (Pharmacia) equilibrated with the same buffer. ALS assays were carried out in a final volume of 0.5 mL at 30° C. The final reaction mixture contained 100 mM Hepes (pH 7.5), 1 mM magnesium chloride, 60 mM sodium pyruvate, 0.4 mM thiaminepyrophosphate, […], and various concentrations of chlorsulfuron. The assays were initiated with the addition of enzyme ([…]) and terminated with the addition of […] of 6N sulfuric acid. The acidified reaction mixture was heated to 60° C. for 15 min, after which 0.5 mL of 0.5% (W/V) creatine and 0.5 mL of 5% (W/V) napthol (freshly prepared in 2.5 N sodium hydroxide) were added. The reaction mixtures were heated for an additional 15 min at 60° C., and the absorbance was read at 525 nm. Data are expressed in terms of % control (minus Compound 1) activity and are the average of two replications. Fisher's least significant difference (LSD) value (at the 95% level of confidence) was calculated for each Compound 1 concentration to determine the significance of genotype mean differences.

The test system of assay [14] is mutant line W20. As to the kind of experiment: Test B postemergence cross resistance test. It counts as in vivo, soybean. The settings on record: Glycine max, post-emergence. The essentials: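 Soybean mutant lines and Williams 82 sprayed postemergence at the second trifoliolate stage with ALS inhibitors (sulfonylureas, imidazolinones), each at two rates. Injury rated two to three times per pot over three weeks in the greenhouse and averaged; ANOVA per herbicide, Fisher's LSD at 95%.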

In assay [15] the test system is W20 seedlings. Nature of the assay: Large-scale hydroponic screening pilot with Compound 8. The format is in vivo, soybean. The settings on record: 300 ppb used to irrigate the hydroponic system. The text has this: The first screening protocol used was identical to the "Large-Scale Hydroponic Screening System" described previously except for the fact that 300 ppb of Compound 8 was used as the selective agent instead of 100 ppb of Compound 1. […] Rare seedlings developing true leaves became very obvious against the background of inhibited seedlings.

On to `COc1nc(C)nc(NC(=O)NS(=O)(=O)c2ccccc2Cl)n1` [Compound 1, 2-chloro-N-[[(4-methoxy-6-methyl-1,3,5-triazin-2-yl)amino]carbonyl]benzenesulfonamide], for which the % crop injury at 2 g/ha in assay [1] turned out to be 0%. This molecule displayed a % crop injury at 8 g/ha in assay [1] (W4, 8 g/ha postemergence) of 0%. This molecule showed a soybean crop injury (%) at 2 g/ha in assay [2] of 0%. The soybean crop injury (%) at 8 g/ha in assay [2] (W17, 8 g/ha postemergence) came to 0%. The molecule also gave a mean % injury to soybean at 2 g/ha in assay [3] of 0%. Also, the mean % injury to soybean at 8 g/ha in assay [3] (W28, 8 g/ha postemergence) worked out at 0%. In assay [4] (W23, 8 g/ha postemergence), this molecule showed a percent soybean injury at 8 g/ha of 0%. Moreover, the soybean crop injury at 2 g/ha in assay [5] worked out at 98%. For the same molecule, the soybean crop injury at 8 g/ha in assay [5] (Wm 82, 8 g/ha postemergence) turned out to be 100%. In [6], the percent soybean crop injury at 2 g/ha is 0%. Also, in assay [6] (W19, 8 g/ha postemergence), the percent soybean crop injury at 8 g/ha turned out to be 13%. Further, the mean % injury was determined as 13% in [7] (W20, 8 g/ha postemergence); 97% in [8] (8 g/ha postemergence); 97% in assay [9] (WM 82, 8 g/ha postemergence); 12% in [10] (W19, 8 g/ha postemergence). For the same molecule, in [11], the “leaf and root development” value was “consistently stunt or inhibit leaf and root development”. Moreover, the leaf formation result in [12] is reported as “allow unifoliolate (but not trifoliolate) formation”. Further, the “uninhibited ALS activity (% of control)” value was 41.1 % of control in assay [13] (WM 82, chlorsulfuron 10 mg/l-l); 26.3 % of control in assay [13] (WM 82, chlorsulfuron 20 mg/l-l); 15.0 % of control in [13] (WM 82, chlorsulfuron 50 mg/l-l); 11.1 % of control in assay [13] (WM 82, chlorsulfuron 100 mg/l-l); 8.5 % of control in assay [13] (WM 82, chlorsulfuron 200 mg/l-l). The percent crop injury at 8 g/ha in [14] (W20, 8 g/ha postemergence) stood at 0%.
In [1] (W4, 0.5 g/ha postemergence), `COC(=O)c1cccnc1S(=O)(=O)NC(=O)Nc1nc(OC)cc(OC)n1` [Compound 8, Methyl 2-[[[[(4,6-dimethoxy-2-pyrimidinyl)amino]carbonyl]amino]sulfonyl]-3-pyridinecarboxylate] showed a % crop injury at 0.5 g/ha of 39%. This molecule also gave a % crop injury at 2 g/ha in assay [1] of 81%. In assay [2] (W17, 0.5 g/ha postemergence), this molecule showed a soybean crop injury (%) at 0.5 g/ha of 26%. The soybean crop injury (%) at 2 g/ha in [2] is 83%. For the same molecule, the mean % injury to soybean at 0.5 g/ha in [3] (W28, 0.5 g/ha postemergence) was 53%. In assay [3], the mean % injury to soybean at 2 g/ha is 84%. In addition, the percent soybean injury at 0.5 g/ha in [4] (W23, 0.5 g/ha postemergence) was found to be 21%. The molecule also showed a percent soybean injury at 2 g/ha in assay [4] (W23, 2 g/ha postemergence) of 70%. This molecule yielded a soybean crop injury at 0.5 g/ha in assay [5] (Wm 82, 0.5 g/ha postemergence) of 93%. The same molecule had a soybean crop injury at 2 g/ha in assay [5] of 98%. This molecule gave a percent soybean crop injury at 0.5 g/ha in [6] (W19, 0.5 g/ha postemergence) of 29%. The molecule further showed a percent soybean crop injury at 2 g/ha in [6] of 85%. In addition, the seedling development entry in assay [15] is “would not develop true leaves”. The mean % injury in [7] (W20, 8 g/ha postemergence) stood at 93%; in assay [7] (W20, 32 g/ha postemergence), 97%; in [8] (8 g/ha postemergence) it was 93%; in assay [8] (32 g/ha postemergence), 92%; in assay [9] (WM 82, 8 g/ha postemergence), 95%; in [9] (WM 82, 32 g/ha postemergence) it was 95%. The mean % injury in [10] (W19, 8 g/ha postemergence) came to 84%; in assay [10] (W19, 32 g/ha postemergence), 95%. The molecule also had a percent crop injury at 0.5 g/ha in assay [14] (W20, 0.5 g/ha postemergence) of 19%. This molecule showed a percent crop injury at 2 g/ha in [14] (W20, 2 g/ha postemergence) of 89%.
